The target of assay [1] is Chymotrypsinogen A (Bos taurus) (UniProt P00766). The assay is described as follows: The compound was tested for the inhibition of alpha-Chymotrypsin, activity expressed as IC50.
Assay [2] shares this target. The description is as above. This is another data set of the same source.

This is an account of results in BindingDB's records for doi:10.1016/S0960-894X(97)00091-7 (1997).

SMILES strings stand for the structures. Where a SMILES comes first, the peptide text is derived from it. The star is where a group is joined. Cbz = O=C(OCc1ccccc1)*

The IC50 is the point on the concentration scale where inhibition reaches its midpoint. A lower IC50 goes with higher potency. As usually defined, the Ki is a dissociation constant, usually derived from enzyme kinetics or from competition with a known ligand. Read a high Ki as lower affinity. The molecule `C[C@H](NC(=O)OCc1ccccc1)C(=O)N[C@@H](C)C(=O)N[C@H](C=O)Cc1ccccc1` [{1-[1-(1-Benzyl-2-oxo-ethylcarbamoyl)-ethylcarbamoyl]-ethyl}-carbamic acid benzyl ester] (Cbz-Ala-Ala-Phe-aldehyde) came in with an IC50 in assay [1] of 950 nM. Further, the affinity in assay [2] corresponds to a Ki of 2200 nM.
